Measurements published in patent EP1531159B1, “Peptide useful for diagnosis and therapy of tumors” (Deutsches Krebsforschungszentrum Stiftung des öffentlichen …, priority 2003, dated 2005).

Columns and labels:
[1] = system: DU-145 prostate tumor cells; experiment: Competition assay of 125I-DU-Sigi1 with unlabeled competitor on DU-145 cells; assay type: binding, human; conditions: for inhibition of binding of ^125I-DU-Sigi1: 10 min at 37°C
Protocol: The peptide DU-Sigi1 (FRPNRAQDYNTN) was prepared by chemical synthesis and labeled with ^125I. 200,000 DU-145 cells (human prostate tumor cell line) were seeded into 6-well plates and cultivated for 24 hours. Then, the medium was replaced by fresh medium (without FCS). Different competitor concentrations (unlabeled DU-Sigi1) were added to the medium 30 min before the ^125I-labeled peptide was added to the wells (1-2 mio cpm/well) and incubated for 10 min at 37°C.[…], After the incubation time the cells were collected and washed for three times with 1 ml PBS per washing. Then, the cells were lysed with 0.3 M NaOH. Radioactivity of the lysed cells was determined with a gamma counter and radioactivity as percent applied dose per 1 million cells was calculated. […] The ID50 is approx. 50 µM.

[2] = system: DU-145 prostate tumor cells; experiment: Binding kinetics of 125I-DU-Sigi1 on DU-145 cells; parameters: species or system human
Protocol: The peptide DU-Sigi1 (FRPNRAQDYNTN) was prepared by chemical synthesis and labelled with ^125I. 200,000 DU-145 cells (human prostate tumor cell line) were seeded into 6-well plates and cultivated for 24 hours. Then, the medium was replaced by fresh medium (without FCS). ^125I-labelled peptide was added to the cell culture (1-2 mio cpm/well) and incubated for times from 1 min to 4 h. After the incubation time the cells were collected and washed for three times with 1 ml PBS per washing. Then, the cells were lysed with 0.3 M NaOH. Radioactivity of the lysed cells was determined with a gamma counter and radioactivity as percent applied dose per 1 million cells was calculated. It could be shown that the binding of DU-Sigi1 is rapid and the highest binding rate occurs after 5 min. Then the amount of bound peptide decreases and reaches a basal level of about 1.5 % applied dose/1 mio cells.

[3] = system: human prostate tumor (DU-145); experiment: Organ distribution of intravenously injected 131I-labeled DU-Sigi1 in tumor-bearing mice; assay type: in vivo, male nu/nu mice; conditions: i.v., 28 mio cpm/mouse, 15 min and 45 min postinjection
Protocol: The peptide DU-Sigi1 (FRPNRAQDYNTN) was prepared by chemical synthesis and labeled with ^131I. ^131I labeled peptide DU-Sigi1 (FRPNRAQDYNTN) (28 mio cpm/mouse) was intravenously injected into male nu/nu mice, which subcutaneously carried a human prostate tumor (DU-145). 15 min. and 45 min, respectively, postinjection the mice were sacrificed. The organs were removed, weighed and the radioactivity was determined with a gamma counter. […] The high blood volumn might be due to the degradation of the peptide by serum peptidases and proteases.

[4] = system: HUVEC, human primary endothelial cells; experiment: Binding of 125I-DU-Sigi1 to primary endothelial cells; conditions: ^125I-labelled peptide, 1-2 mio cpm/well, 10 min incubation
Protocol: (§1) The peptide DU-Sigi1 (FRPNRAQDYNTN) was prepared by chemical synthesis and labelled with ^125I. For in vitro studies, 200,000 cells (DU-145, human prostate tumor cell line; PC-3, human prostate cell line; HUVEC, human primary endothelial cells, IMR5-75, human neuroblastoma cell line, MDA-MB-435, human breast cancer cell line, SW-1736, human thyroid cancer cell line, NPA-87, human thyroid cancer cell line) were seeded into 6-well plates and cultivated for 24 hours. Then, the medium was replaced by fresh medium (without FCS) and for the plates with competitor, unlabelled peptide was added (10^-4 M) and preincubated for 30 min. Then, ^125I-labelled peptide was added to the cell culture (1-2 mio cpm/well) and incubated for 10 min. The cells were collected and washed for three times with 1 ml PBS per washing. Then, the cells were lysed with 0.3 M NaOH. Radioactivity of the lysed cells was determined with a gamma counter and radioactivity as percent applied dose per 1 million cells was calculated.

[5] = system: PC-3 cells (prostate tumor cell line); experiment: Competition assay of 125I-DU-Sigi1 with unlabeled DU-Sigi1 on PC-3 cells; assay type: binding, human; conditions: data not shown
[6] = system: human tumor cell lines (DU-145, PC-3, IMR5-75, MDA-MB-435, SW-1736, NPA-87); experiment: Binding of 125I-DU-Sigi1 to human tumor cell lines
Protocol: as §1

[7] = system: PC-3 cells (prostate tumor cell line); experiment: Binding kinetics of 125I-DU-Sigi1 on PC-3 cells; parameters: species or system human; conditions: data not shown

## FRPNRAQDYNTN [DU-Sigi1]
[1]; unlabeled DU-Sigi1 as competitor of ^125I-DU-Sigi1
  ID50: approx. 50 µM
[1]; unlabeled DU-Sigi1 concentration 10^-4, added 30 min before
  inhibition of binding of ^125I-DU-Sigi1: more than 95%
[1]; unlabeled DU-Sigi1 concentration 10^-5, added 30 min before
  inhibition of binding of ^125I-DU-Sigi1: more than 95%
[2]; after the binding maximum, incubation up to 4 h
  basal level of bound peptide: about 1.5 % applied dose/1 mio cells
[2]; incubation times from 1 min to 4 h
  time of highest binding rate: 5 min
[3]
  accumulation in tumor versus other organs: accumulates in the tumor to a higher extent than in the other organs, with the exeption of the kidney
[4]
  binding of labelled peptide to primary endothelial cells: not the primary endothelial cells
[5]
  competition compared with DU-145 cells: The same results were obtained
[6]; ^125I-labelled peptide, 1-2 mio cpm/well, 10 min incubation
  binding of labelled peptide to tumor cells: specifically binds to the various tumor cells
[6]; unlabelled peptide 10^-4 M, preincubated for 30 min
  competitive inhibition of binding: up to 95%
[7]
  binding kinetics compared with DU-145 cells: The same results were obtained

## octreotide [reference compound]
[1]; unlabeled competitor, same concentration, data not shown
  competition with ^125I-DU-Sigi1 binding: No competition
